The record followed here is patent publication US6335356B1, “Method of treating a patient by parenteral administration of a lipophilic compound” (Sugen, Inc., priority 1994, dated 2002).

Molecules are shown by their SMILES. Converted amounts (≈) assume the structure as drawn.

Data set [1] in a line: Ability of leflunomide solutions to be diluted with aqueous solutions. It counts as physicochemical. The note with it: for Solubility: organic solvent or mixture, read-out: concentration soluble and allowing dilution with aqueous solutions. Here is the method:
(§1) Leflunomide has a low solubility in standard formulations used to dissolve compounds for parenteral administration. For example, the solubility of leflunomide in VPD (126 mg alcohol, 40 mg POLYSORBATE 80®, 3 mg citric acid, 15 mg benzyl alcohol, and 325 mg PEG MW300; also referred to as PBTE) is about 60 mg/ml. Parenterally administered VPD formulations should be diluted at least 1:2 with a pharmaceutically acceptable aqueous solution to avoid toxic effects. Such dilution can result in precipitation of lipophilic compounds. For leflunomide, a concentration in VPD greater than about 5 mg/ml precipitates when diluted 1:2 with a pharmaceutically aqueous solution such as WFI. Leflunomide was solubilized in varying ratios of POLYSORBATE 80® and alcohol. The leflunomide solutions were then tested for the ability to dilute with aqueous solutions.

The format of data set [2] is physicochemical. The source says: The pH of the formulations can be adjusted with a pharmaceutically acceptable excipient. For example, the apparent pH of the POLYSORBATE 80®:alcohol formulations can be adjusted with citric acid.
The nature of data set [3]: Solubility of leflunomide in vehicles (POLYSORBATE 80:alcohol ratios, alcohol, VPD/PBTE). The class given is physicochemical. Here is the method:
as §1, with “WFI.” for “WFI. Leflunomide was solubilized in varying ratios of POLYSORBATE 80® and alcohol. The leflunomide solutions were then tested for the ability to dilute with aqueous solutions.”
Increasing the solubility of leflunomide allows more leflunomide to be administered to a patient via parenteral administration. The formulations described by the present invention can use alcohol and a surfactant to solubilize leflunomide. Leflunomide is soluble in alcohol at 100 mg/ml. The surfactant is added to allow for the dilution into a pharmaceutically acceptable aqueous solution prior to injection.
Leflunomide was solubilized in varying ratios of POLYSORBATE 80® and alcohol. The leflunomide solutions were then tested for the ability to dilute with aqueous solutions.
As noted above, the stability of leflunomide in solution is pH dependent. To stabilize leflunomide varying amounts of citric acid (1 to 20 mg/ml) were added to both 33%T:66%E and 66%T:33%E. The citric acid decreased the apparent pH of the solutions.

A short description of data set [4]: Physical stability (precipitation) of leflunomide solutions over time. The class given is physicochemical.

As to `Cc1oncc1C(=O)Nc1ccc(C(F)(F)F)cc1` [Leflunomide, 5-methylisoxazole-4 carboxylic acid-(4-trifluromethyl)-anilide], the Solubility in data set [1] (POLYSORBATE 80:alcohol vehicle 33%T:66%E, in 33%T:66%E) is 25 mg/mL (≈ 92.5 mM); in data set [1] (POLYSORBATE 80:alcohol vehicle 66%T:33%E, in 66%T:33%E), 50 mg/mL (≈ 185 mM); in data set [3] (VPD (PBTE) parenteral vehicle, organic solvent or mixture, VPD (126 mg alcohol, 40 mg POLYSORBATE 80, 3 mg citric acid, 15 mg benzyl alcohol, 325 mg PEG MW300; also PBTE), read-out: solubility in VPD) it was roughly 60 mg/mL; in data set [3] (alcohol, organic solvent or mixture, read-out: soluble in alcohol at) it was 100 mg/mL; in data set [3] (vehicle 33%T:66%E (POLYSORBATE 80:alcohol v/v), 100 mg/ml), “Insoluble”; in data set [3] (vehicle 33%T:66%E, 25 mg/ml), “Soluble”. In addition, the Solubility result in data set [3] (vehicle 33%T:66%E, 50 mg/ml) is on record as “Soluble”; in data set [3] (vehicle 50%T:50%E, 50 mg/ml), “Soluble”; in data set [3] (vehicle 50%T:50%E, 55 mg/ml), “Soluble”; in data set [3] (vehicle 50%T:50%E, 60 mg/ml) it was “Soluble”; in data set [3] (vehicle 50%T:50%E, 75 mg/ml) it was “Soluble”; in data set [3] (vehicle 50%T:50%E, 100 mg/ml), “Soluble”. The Solubility result was “Soluble” in data set [3] (vehicle 66%T:33%E, 50 mg/ml); “Insoluble” in data set [3] (vehicle 66%T:33%E, 100 mg/ml); “Soluble” in data set [3] (vehicle PBTE6C:WFI, 2.5 mg/ml); “Soluble” in data set [3] (vehicle alcohol, 100 mg/ml). Also, in data set [1] (VPD diluted 1:2 with pharmaceutically aqueous solution such as WFI), the “concentration in VPD that precipitates when diluted 1:2” value is recorded as “greater than 5 mg/ml”. In addition, the stability in solution result in data set [2] was “breakdown to N-(4-trifluoromethylphenyl)-2-cyano-3-hydroxycrotonamide”. In addition, in data set [3] (33%:66%E with citric acid 1 to 20 mg/ml), the “solubility after addition of citric acid” value was “no longer soluble to the same extent”. The remaining in solution entry is “precipitate started to occur” in data set [4] (20 mg/ml in 33%T:66%E with citric acid, 2-8° C. for 7 days); “remains in solution” in data set [4] (20 mg/ml in 33%T:66%E with either 4 or 6 mg/ml citric acid, 4° C.); “remains in solution” in data set [4] (20 mg/ml in 33%T:66%E with either 4 or 6 mg/ml citric acid, room temperature). Besides, in data set [4] (25 mg/ml in 33%T:66%E, diluted with aqueous solutions, room temperature (22° C. to 26° C.), over 3 days), the “remaining in solution with time” value is recorded as “falls out of solution”.
